US20240101576A1, “HETEROCYCLIC INHIBITORS OF EGFR AND/OR HER2, FOR USE IN THE TREATMENT OF CANCER” (Scorpion Therapeutics, Inc., priority 2020, published 2024)

Tests used:
Type in all cases: cell-based
EGFR L858R (Ba/F3 cells) [1] = target: T1, EGFR L858R (Ba/F3 cells) (Homo sapiens, UniProt P00533, L858R); experiment: Inhibitor activity on EGFR-dependent cell growth (CellTiter-Glo, 72 h), Ba/F3 EGFR L858R; details: read-out: BaF3 L858R IC50
T1 construct: expressed in transfected cells; host or cells: Ba/F3 (murine pro-B cells), retroviral transduction, puromycin selection, IL3-independent pool
T1 sequence (P00533 25-1210 L858R): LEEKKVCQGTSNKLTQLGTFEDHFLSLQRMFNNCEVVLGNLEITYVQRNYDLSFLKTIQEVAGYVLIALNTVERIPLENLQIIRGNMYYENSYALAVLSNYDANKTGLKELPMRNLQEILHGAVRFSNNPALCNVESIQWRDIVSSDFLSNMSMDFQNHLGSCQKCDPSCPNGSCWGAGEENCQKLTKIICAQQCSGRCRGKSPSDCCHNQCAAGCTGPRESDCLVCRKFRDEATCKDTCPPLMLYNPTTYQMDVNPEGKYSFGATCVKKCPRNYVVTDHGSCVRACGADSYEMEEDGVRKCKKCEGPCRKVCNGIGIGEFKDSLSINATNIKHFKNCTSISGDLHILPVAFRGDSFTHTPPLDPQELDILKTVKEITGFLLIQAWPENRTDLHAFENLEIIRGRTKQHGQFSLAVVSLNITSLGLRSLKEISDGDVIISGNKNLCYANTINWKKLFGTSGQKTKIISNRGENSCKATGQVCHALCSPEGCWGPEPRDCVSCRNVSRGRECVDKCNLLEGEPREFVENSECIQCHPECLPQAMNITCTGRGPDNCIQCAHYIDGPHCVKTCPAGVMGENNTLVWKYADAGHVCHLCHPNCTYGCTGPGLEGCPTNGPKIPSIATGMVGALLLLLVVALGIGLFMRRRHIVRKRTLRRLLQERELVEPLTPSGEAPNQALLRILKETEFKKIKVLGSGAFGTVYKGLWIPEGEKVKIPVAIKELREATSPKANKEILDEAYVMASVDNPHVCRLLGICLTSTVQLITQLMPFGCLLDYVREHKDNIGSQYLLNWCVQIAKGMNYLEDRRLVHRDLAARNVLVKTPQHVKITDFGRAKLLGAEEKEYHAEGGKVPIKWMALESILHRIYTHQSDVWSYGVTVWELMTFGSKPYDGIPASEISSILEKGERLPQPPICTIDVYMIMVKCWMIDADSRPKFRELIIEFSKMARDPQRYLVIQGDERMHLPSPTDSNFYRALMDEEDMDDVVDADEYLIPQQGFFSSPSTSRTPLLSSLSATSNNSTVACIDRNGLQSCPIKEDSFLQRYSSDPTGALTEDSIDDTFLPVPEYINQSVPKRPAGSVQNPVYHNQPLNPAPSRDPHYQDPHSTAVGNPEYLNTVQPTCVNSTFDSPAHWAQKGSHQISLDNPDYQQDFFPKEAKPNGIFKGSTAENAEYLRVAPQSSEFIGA
Outline: (§1)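 Steps: seed Ba/F3 EGFR-mutant pools (800 cells/well FQEA and exon 19del; 600 L858R/C797S; 400 L858R). Add 120 nL of serially diluted compound and incubate 72 h. Equilibrate to room temperature, add CellTiter-Glo and read after 30 min. Fit IC50.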

[2] = target: T2, EGFR exon 19del (Ba/F3 cells) (Homo sapiens, UniProt P00533); experiment: Inhibitor activity on EGFR-dependent cell growth (CellTiter-Glo, 72 h), Ba/F3 EGFR exon 19del; details: Ba/F3 EGFR exon 19del cell growth, read-out: BaF3 Del19 IC50
T2 sequence (P00533 with tags, fused parts or gaps DEL746-750): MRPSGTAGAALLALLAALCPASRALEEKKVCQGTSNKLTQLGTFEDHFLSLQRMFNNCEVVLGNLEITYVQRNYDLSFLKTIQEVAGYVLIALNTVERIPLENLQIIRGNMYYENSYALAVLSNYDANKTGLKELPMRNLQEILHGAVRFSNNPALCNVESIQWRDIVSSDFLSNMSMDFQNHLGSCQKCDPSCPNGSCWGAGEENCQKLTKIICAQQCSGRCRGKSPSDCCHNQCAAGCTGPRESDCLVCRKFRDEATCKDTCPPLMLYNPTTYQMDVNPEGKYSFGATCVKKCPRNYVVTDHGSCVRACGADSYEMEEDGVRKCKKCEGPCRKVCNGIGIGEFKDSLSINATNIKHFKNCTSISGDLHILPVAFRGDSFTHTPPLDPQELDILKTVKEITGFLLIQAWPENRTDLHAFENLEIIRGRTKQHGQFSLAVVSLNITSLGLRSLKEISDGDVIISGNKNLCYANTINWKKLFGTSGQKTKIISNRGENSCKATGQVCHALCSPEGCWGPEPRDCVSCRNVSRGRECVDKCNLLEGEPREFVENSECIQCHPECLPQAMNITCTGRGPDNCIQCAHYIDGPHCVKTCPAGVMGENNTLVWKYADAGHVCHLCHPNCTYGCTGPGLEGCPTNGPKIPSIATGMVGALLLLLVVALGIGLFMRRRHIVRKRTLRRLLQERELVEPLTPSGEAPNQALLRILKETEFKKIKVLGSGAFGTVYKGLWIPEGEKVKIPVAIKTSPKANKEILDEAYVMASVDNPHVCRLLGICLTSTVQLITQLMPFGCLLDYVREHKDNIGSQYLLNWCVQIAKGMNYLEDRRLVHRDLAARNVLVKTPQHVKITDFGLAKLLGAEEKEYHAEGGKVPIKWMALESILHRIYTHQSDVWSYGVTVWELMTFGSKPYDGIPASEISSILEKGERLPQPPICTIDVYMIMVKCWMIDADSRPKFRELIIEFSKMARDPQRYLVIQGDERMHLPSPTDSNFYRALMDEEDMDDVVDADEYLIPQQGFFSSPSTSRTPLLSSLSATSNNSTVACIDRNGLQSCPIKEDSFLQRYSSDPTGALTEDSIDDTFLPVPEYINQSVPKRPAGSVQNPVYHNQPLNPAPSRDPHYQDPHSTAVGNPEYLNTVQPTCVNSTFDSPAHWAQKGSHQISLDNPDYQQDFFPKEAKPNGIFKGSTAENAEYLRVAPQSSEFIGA
Outline: as §1

[3] = target: T3, EGFR L858R/C797S (Ba/F3 cells) (Homo sapiens, UniProt P00533, C797S/L858R); experiment: Inhibitor activity on EGFR-dependent cell growth (CellTiter-Glo, 72 h), Ba/F3 EGFR L858R/C797S; details: read-out: BaF3 L858R/C797S IC50
T3 construct: expressed in transfected cells; host or cells: Ba/F3 (murine pro-B cells), retroviral transduction, puromycin selection, IL3-independent pool
From the text: Example A. Inhibitor Activity on EGFR-Dependent Cell Growth
Cell lines are generated by transducing Ba/F3 cells with retroviruses containing vectors with EGFR WT, EGFR L858R, EGFR exon 19del, EGFR L858R/C797S, EGFR exon 20 NPG Ins D770_N771, EGFR exon 20 ASV Ins V769_D770, EGFR exon 20 SVD Ins D770_N771, or EGFR exon 20 FQEA Ins A763_V764 genes and a puromycin selection marker. Transduced cells are selected with puromycin for 7 days and are then be transferred into culture media without Interleukin 3 (IL3). EGFR WT cells are maintained with supplemental EGF. Surviving cells are confirmed to express EGFR by Western blot and maintained as a pool. The IC50 date were included in Table 6 and Table 7.
(§2) 1.1 Cells are harvested from flask into cell culture medium and the cell number counted.
1.2 Cells are diluted with culture medium to the desired density and 40 μL of cell suspension is added into each well of 384-well cell culture plate and the seeding density is 800 (FQEA, exon 19del), 600 (WT, NPG, L858R/C797S), or 400 (ASV, SVD, L858R) cells/well.
(§3) 2 Compound Preparation and Treatment
(§4) 2.1 Test compounds are dissolved to 10 mM in a DMSO stock solution. 45 μL of stock solution is transferred to a 384 polypropylene plate (pp-plate). Perform 3-fold, 10-point dilution via transferring 15 μL compound into 30 μL DMSO using a TECAN (EVO200) liquid handler.
(§5) 2.2 Spin plates at room temperature at 1,000 RPM for 1 minute.
2.3 Transfer 120 nL of diluted compound from compound source plate into the cell plate.
2.4 After compound treatment for 72 hours, perform CTG detection for compound treatment plates as described in “Detection” section.
3.1 Plates are removed from incubators and equilibrated at room temperature for 15 minutes.
3.2 Thaw the CellTiter Glo reagents and allow to equilibrate to room temperature before the experiment.
3.3 Add 40 μL of CellTiter-Glo reagent into each well (at 1:1 to culture medium). Then place the plates at room temperature for 30 min followed by reading on EnVision.
4.1 Inhibition activity is calculated following the formula below:
% Inhibition=100×(LumHC−LumSample)/(LumHC−LumLC) • where HC is obtained from cells treated with 0.1% DMSO only; and LC is obtained from culture medium only.
4.2 2. Calculate the IC50 by fitting the Curve using Xlfit (v5.3.1.3), equation 201.
Y=Bottom+(Top−Bottom)/(1+10^((Log IC50−X)*HillSlope))

EGFR L858R (Ba/F3 cells) [4] = target: T1, EGFR L858R (Ba/F3 cells); experiment: Inhibitor activity on EGFR phosphorylation (pEGFR AlphaLISA, 2 h), Ba/F3 EGFR L858R
From the text: (§6) Example B. Inhibitor Activity on EGFR phosphorylation (pEGFR)
(§7) EGFR mutant Ba/F3 cells were generated by transduction with retrovirus containing vectors expressing EGFR L858R, EGFR exon 19del, EGFR L858R/C797S, EGFR exon 20 NPG Ins D770_N771, EGFR exon 20 ASV Ins V769_D770, or EGFR exon 20 SVD Ins D770_N771 genes along with a puromycin selection marker. Transduced cells are selected with puromycin for 7 days and are then be transferred into culture media without Interleukin 3 (IL3). Surviving cells are confirmed to express EGFR by Western blot and maintained as a pool. CUTO14 cells were obtained from Dr. Robert C. Doebele at the University of Colorado. The IC50 date are included in Table 6 and Table 7.
as §2
(§8) 1.2 Cells are diluted with culture medium to the desired density and 40 μL of cell suspension is added into each well of 384-well cell culture plate and the seeding density is 50K cells/well (Ba/F3) or 12.5K cells/well (CUTO14).
as §3, §4, §5
(§9) 2.3 Transfer 5 nL of diluted compound from compound source plate into the cell plate.
(§10) 2.4 After compound treatment for 2 hours, perform pEGFR detection by AlphaLISA for compound treatment plates as described in “Detection” section.
(§11) 3 Detection by pEGFR AlphaLISA (Perkin-Elmer)
(§12) 3.1 Plates are removed from incubators and equilibrated at room temperature for 10 minutes, and media was removed
(§13) 3.2 10 μL of lysis buffer is added and plates shaken at 600 rpm for 1 hr.
(§14) 3.3 Prepare acceptor mix just before use and dispense 5 μL of acceptor mix to all the wells. Shake 350 rpm for Ihr in the dark
(§15) 3.4 Prepare donor mix under low light conditions prior to use. Dispense 5 μL of donor mix to all the wells. Mix well on the shaker, seal and wrap in aluminum foil and incubate 1.5 hrs at room temperature in the dark
(§16) 3.5 Transfer 18.5 μL mixture to OptiPlate 384, and read using an Envision. The IC50 date were included in Table 6 and Table 7.

[5] = target: T2, EGFR exon 19del (Ba/F3 cells); experiment: Inhibitor activity on EGFR phosphorylation (pEGFR AlphaLISA, 2 h), Ba/F3 EGFR exon 19del; details: read-out: Del19 IC50 (pEGFR)
From the text: as §6, §7, §2, §8, §3, §4, §5, §9, §10, §11, §12, §13, §14, §15, §16

[6] = target: T3, EGFR L858R/C797S (Ba/F3 cells); experiment: Inhibitor activity on EGFR phosphorylation (pEGFR AlphaLISA, 2 h), Ba/F3 EGFR L858R/C797S
From the text: as §6, §7, §2, §8, §3, §4, §5, §9, §10, §11, §12, §13, §14, §15, §16

EGFR WT (Ba/F3 cells) = target: T4, EGFR WT (Ba/F3 cells) (Homo sapiens, UniProt P00533); experiment: Inhibitor activity on EGFR-dependent cell growth (CellTiter-Glo, 72 h), Ba/F3 EGFR WT; details: read-out: BaF3 WT IC50
T4 construct: expressed in transfected cells; host or cells: Ba/F3 (murine pro-B cells), retroviral transduction, puromycin selection, maintained with EGF
T4 sequence (P00533 25-1210): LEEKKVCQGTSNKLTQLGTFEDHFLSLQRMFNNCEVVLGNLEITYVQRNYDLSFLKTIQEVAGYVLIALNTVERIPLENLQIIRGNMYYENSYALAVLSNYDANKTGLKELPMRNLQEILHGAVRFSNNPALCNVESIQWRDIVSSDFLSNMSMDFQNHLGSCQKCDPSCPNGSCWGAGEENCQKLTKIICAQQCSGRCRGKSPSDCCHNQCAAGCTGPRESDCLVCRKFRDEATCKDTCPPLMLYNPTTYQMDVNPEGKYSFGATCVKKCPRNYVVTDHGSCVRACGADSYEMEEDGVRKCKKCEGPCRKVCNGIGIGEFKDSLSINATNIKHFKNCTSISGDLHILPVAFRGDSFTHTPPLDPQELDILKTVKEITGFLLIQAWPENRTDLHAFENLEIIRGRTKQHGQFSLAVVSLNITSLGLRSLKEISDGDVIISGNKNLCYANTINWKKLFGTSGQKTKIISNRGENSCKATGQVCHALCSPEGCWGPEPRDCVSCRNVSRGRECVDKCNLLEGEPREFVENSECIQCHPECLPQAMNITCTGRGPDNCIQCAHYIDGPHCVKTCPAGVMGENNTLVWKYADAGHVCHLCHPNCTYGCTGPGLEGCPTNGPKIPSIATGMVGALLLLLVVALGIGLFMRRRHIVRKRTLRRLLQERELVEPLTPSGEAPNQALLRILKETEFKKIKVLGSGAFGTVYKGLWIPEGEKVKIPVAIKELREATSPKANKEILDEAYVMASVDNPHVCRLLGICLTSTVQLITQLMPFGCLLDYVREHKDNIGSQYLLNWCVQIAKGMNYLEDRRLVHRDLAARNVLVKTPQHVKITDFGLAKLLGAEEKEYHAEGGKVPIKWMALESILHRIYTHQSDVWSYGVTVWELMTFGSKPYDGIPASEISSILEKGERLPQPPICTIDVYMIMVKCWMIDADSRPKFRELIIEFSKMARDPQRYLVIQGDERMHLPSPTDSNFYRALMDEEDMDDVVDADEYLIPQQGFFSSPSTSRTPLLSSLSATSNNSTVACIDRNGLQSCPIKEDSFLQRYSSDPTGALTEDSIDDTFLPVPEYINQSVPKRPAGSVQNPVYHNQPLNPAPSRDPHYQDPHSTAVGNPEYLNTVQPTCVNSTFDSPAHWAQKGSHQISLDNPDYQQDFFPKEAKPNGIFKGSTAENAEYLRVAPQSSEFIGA
Outline: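 This growth assay used Ba/F3 cells that depend on wild-type EGFR and are kept in EGF without IL3. Compounds were made up as 10 mM DMSO stocks and diluted 3-fold over 10 points. 120 nL went onto 600 cells/well. After 72 hours, 40 μL CellTiter-Glo was added and luminescence read on EnVision after 30 min.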

[7] = target: T5, EGFR exon 20 NPG Ins D770_N771 (Ba/F3 cells) (Homo sapiens, UniProt P00533, INS770NPG); experiment: Inhibitor activity on EGFR-dependent cell growth (CellTiter-Glo, 72 h), Ba/F3 EGFR exon 20 NPG Ins; details: read-out: BaF3 NPG IC50
T5 construct: expressed in transfected cells; host or cells: Ba/F3 (murine pro-B cells), retroviral transduction, puromycin selection, IL3-independent pool
Outline: (§17)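 IC50s derive from a sigmoidal dose–response fit of CellTiter-Glo signal. The signal was normalised between […]-treated cells and cell-free medium. Ba/F3 mutant-EGFR cells, seeded at 400–800/well depending on the line, had 72 h of exposure to a 10-point, 3-fold compound series.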

[8] = target: T6, EGFR exon 20 ASV Ins V769_D770 (Ba/F3 cells) (Homo sapiens, UniProt P00533, INS769ASV); experiment: Inhibitor activity on EGFR-dependent cell growth (CellTiter-Glo, 72 h), Ba/F3 EGFR exon 20 ASV Ins; details: read-out: BaF3 ASV IC50
T6 construct: expressed in transfected cells; host or cells: Ba/F3 (murine pro-B cells), retroviral transduction, puromycin selection, IL3-independent pool
T6 sequence (P00533 with tags, fused parts or gaps INS769ASV): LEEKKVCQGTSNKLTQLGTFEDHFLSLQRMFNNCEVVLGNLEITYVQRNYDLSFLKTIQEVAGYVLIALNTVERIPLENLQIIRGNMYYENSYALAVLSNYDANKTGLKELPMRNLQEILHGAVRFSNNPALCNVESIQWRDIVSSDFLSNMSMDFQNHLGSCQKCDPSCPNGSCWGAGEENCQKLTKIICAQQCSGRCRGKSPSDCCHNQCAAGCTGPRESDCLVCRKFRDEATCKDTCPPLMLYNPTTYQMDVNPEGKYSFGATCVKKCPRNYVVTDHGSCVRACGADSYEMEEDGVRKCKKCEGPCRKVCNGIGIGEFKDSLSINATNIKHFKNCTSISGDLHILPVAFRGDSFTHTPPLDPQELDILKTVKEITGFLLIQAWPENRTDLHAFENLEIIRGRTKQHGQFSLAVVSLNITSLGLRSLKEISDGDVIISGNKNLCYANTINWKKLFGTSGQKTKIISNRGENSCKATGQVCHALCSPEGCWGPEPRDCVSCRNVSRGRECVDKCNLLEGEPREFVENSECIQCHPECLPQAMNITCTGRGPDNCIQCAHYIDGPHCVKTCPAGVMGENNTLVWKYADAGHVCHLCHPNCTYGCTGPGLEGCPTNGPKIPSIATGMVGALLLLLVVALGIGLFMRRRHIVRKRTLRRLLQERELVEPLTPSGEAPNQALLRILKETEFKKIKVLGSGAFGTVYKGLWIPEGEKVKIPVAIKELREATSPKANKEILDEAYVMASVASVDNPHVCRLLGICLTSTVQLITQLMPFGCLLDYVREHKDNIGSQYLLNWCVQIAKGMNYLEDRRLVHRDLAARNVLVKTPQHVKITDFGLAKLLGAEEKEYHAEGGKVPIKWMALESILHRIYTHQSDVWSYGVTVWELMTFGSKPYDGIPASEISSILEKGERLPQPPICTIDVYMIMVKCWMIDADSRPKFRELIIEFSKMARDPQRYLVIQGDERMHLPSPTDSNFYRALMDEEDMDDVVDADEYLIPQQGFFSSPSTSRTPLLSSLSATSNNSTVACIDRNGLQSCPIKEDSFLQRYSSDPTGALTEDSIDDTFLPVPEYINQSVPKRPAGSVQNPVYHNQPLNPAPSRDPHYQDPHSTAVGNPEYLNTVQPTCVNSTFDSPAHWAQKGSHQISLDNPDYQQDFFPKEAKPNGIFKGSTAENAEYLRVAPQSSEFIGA
Outline: as §17

[9] = target: T7, EGFR exon 20 SVD Ins D770_N771 (Ba/F3 cells) (Homo sapiens, UniProt P00533, INS770SVD); experiment: Inhibitor activity on EGFR-dependent cell growth (CellTiter-Glo, 72 h), Ba/F3 EGFR exon 20 SVD Ins; details: read-out: BaF3 SVD IC50
T7 construct: expressed in transfected cells; host or cells: Ba/F3 (murine pro-B cells), retroviral transduction, puromycin selection, IL3-independent pool
Outline: as §17

[10] = target: T8, EGFR exon 20 FQEA Ins A763_V764 (Ba/F3 cells) (Homo sapiens, UniProt P00533, INS763FQEA); experiment: Inhibitor activity on EGFR-dependent cell growth (CellTiter-Glo, 72 h), Ba/F3 EGFR exon 20 FQEA Ins; details: read-out: BaF3 FQEA IC50
T8 construct: expressed in transfected cells; host or cells: Ba/F3 (murine pro-B cells), retroviral transduction, puromycin selection, IL3-independent pool
Outline: as §1

| Structure (SMILES) | IC50 (EGFR L858R (Ba/F3 cells) [1]) [µM] | IC50 [2] [µM] | IC50 [3] [µM] | IC50 (EGFR L858R (Ba/F3 cells) [4]) [µM] | IC50 [5] [µM] | IC50 [6] [µM] | IC50 (EGFR WT (Ba/F3 cells)) [µM] | IC50 [7] [µM] | IC50 [8] [µM] | IC50 [9] [µM] | IC50 [10] [µM] |
| --- | --- | --- | --- | --- | --- | --- | --- | --- | --- | --- | --- |
| COc1c(F)cccc1Nc1c(-c2ccncn2)[nH]c2c1C(=O)NCC2C[C@H]1COCCO1 (single isomer, unassigned) [Compound 530, (7R*)-7-[(2S)-1,4-dioxan-2-ylmethyl]-3-[(3-fluoro-2-methoxyphenyl)amino]-2-(pyrimidin-4-yl)-1H,5H,6H,7H-pyrrolo[3,2-c]pyridin-4-one] | < 0.1 | < 0.1 | < 0.1 | < 0.1 | < 0.1 | < 0.1 | 0.1 to 1 | < 0.1 | < 0.1 | < 0.1 | – |
| COc1c(Cl)cccc1Nc1c(-c2ccncc2F)[nH]c2c1C(=O)NCC21CN(CC(F)F)C1 [Compound 519, 3′-[(3-chloro-2-methoxyphenyl)amino]-1-(2,2-difluoroethyl)-2′-(3-fluoropyridin-4-yl)-5′,6′-dihydro-1′H-spiro[azetidine-3,7′-pyrrolo[3,2-c]pyridin]-4′-one] | < 0.1 | < 0.1 | < 0.1 | < 0.1 | < 0.1 | < 0.1 | > 1 | 0.1 to 1 | 0.1 to 1 | 0.1 to 1 | – |
| COc1ncc2nccc(-c3[nH]c4c(c3Nc3cccc(F)c3OC)C(=O)NCC4)c2n1 [compound 409] | < 0.1 | < 0.1 | < 0.1 | < 0.1 | < 0.1 | < 0.1 | 0.1 to 1 | – | < 0.1 | < 0.1 | < 0.1 |
| COCC[C@@H]1CNC(=O)c2c1[nH]c(-c1ccncn1)c2Nc1cccc(F)c1OC [Compound 447a] | < 0.1 | < 0.1 | < 0.1 | < 0.1 | < 0.1 | < 0.1 | 0.1 to 1 | – | < 0.1 | < 0.1 | < 0.1 |
